Test results as given in patent US9999601B2, “Composition and method for inhibition of nerve transmission” (NEUROQUEST INC., priority 2007, dated 2018).
Entries after “also recorded” stand apart in the source; their conditions may differ.

How the values were obtained:
[1] = target: delayed rectifier current (Ikv), specifically Ikv 1.5 subtype (Homo sapiens, UniProt P22460); experiment: Whole cell patch clamp recordings (K+ channels); format: cell-based; conditions: for inhibition of delayed rectifying potassium channels (in words): 10 ppm (10 mcmol or 10 ppm); for percent inhibition of the delayed rectifier potassium current: at a concentration of Geranium oil that gave 40% inhibition; for inhibition of delayed rectifying potassium channels, comparison in words: concentration not given
Method: Whole cell patch clamp recordings (Axopatch 200B) were made using borosilicate patch pipettes of resistance 3-8 MΩ with an intracellular solution utilizing potassium chloride as the current carrier. Current clamp recording were conducted holding the membrane potential at −60 mV to characterize the firing property of the cells. Voltage clamp was performed to investigate the delayed rectifier current (Ikv), specifically Ikv 1.5 subtype. Statistical significance was assessed using ANOVA followed by Duncan's multiple-range test with P<0.05 taken as indicating significance. […] A synthetic blend of geranium oil containing proportions of geraniol and citronellol similar to natural geranium oil, but with other components removed, was compared to the following ratios of geraniol:citronellol; 2:8, 3:7, 4:6 and geranium oil. The synthetic blend of geranium oil gave a 50% inhibition of the delayed rectifying potassium channel current compared to a 40% inhibition for natural geranium oil.

[2] = system: mouse hippocampal brain slice neurons (cortical neuron); experiment: Patch clamp electrophysiological studies of mouse hippocampal slices; format: cell-based; conditions: for inhibition of nerve transmission (in words): animal cortical nerve cells and dorsal root ganglion cells; for membrane currents, current-voltage relation (in words): bath-applied, 10 mV steps from −110 to −20 mV, FIG. 1, FIG. 2A-C
Method: Studies were conducted on mouse hippocampal brain slice preparations. In terms of the slice preparations, […] coronal brain slices were prepared from animals housed in a 12 hour light (ZT 0-12):12 hour dark (ZT 12-24) environment. Animals were anesthetized with isoflurane, decapitated, the brain rapidly removed and placed in ice cold, oxygenated (95% 02:5% C02), bicarbonate-buffered artificial cerebral spinal fluid (ACSF). A 1 cm^2 block of brain tissue containing the hippocampi was glued to a cutting surface and coronal slices were prepared using a Leica VT1000S microtome (Leica Microsystems). All slices were left to equilibrate for approximately one hour prior to the transfer to a recording chamber. Once transferred to the chamber, slices were continuously superfused with oxygenated ACSF at a rate of 3 ml/min @30° C. and recordings are generally made for the next 6-12 hours. Patch microelectrodes (5-8MΩ) made from borosilicate glass (Garner Glass Co.) and filled with K^+based internal patch solution composed of: (in mM) 120 K-acetate, 40 HEPES, 10 EGTA, 6 MgCl2, nystatin (450 μg/ml) or gramicidin B (5 μg/ml) and pluronic acid F127.
The perforated patch recording technique and will be used (Korn & Horn, 1989) and viable Hippocampal neurons were visually targeted using Infrared Differential Interference Contrast (IR-DIC) microscopy using a Leica DM LFSA scope. […] Recordings were made from 3 different patch rigs equipped with either […] patch clamp amplifiers interfaced via a Digidata 1322A to a PC computer or on, in terms of the studies performed on dissociated DRG neurons, a Zeiss Axoscop 200 inverted microscope equipped with an Axopatch 200B/Digidata 1322A using Pclamp 9.0 and Axoscope 9 software.
Test compounds were bath-applied by superfusion to examine for changes in excitability and/or attenuation of ion channels and the effects of compounds on evoked synaptic responses. Stimulating electrodes (concentric or bipolar) were placed within the slices and in accordance with the well known fiber tract pathways of passage for the
Superimposed responses to a series of 10 mV steps (250 ms) ranged from −110 to −20 mV are shown, (A) in control condition, (B) in presence of geraniol, and (C) after washout of the drug.
Typical response of a cortical neuron following a depolarizing current pulse of 0.4 nA is shown in FIGS. 2D, 2E and 2F, (D) in control condition, (E) in presence of geraniol, and (F) after recovery.
Mean current-voltage plots for 6 cortical neurons are plotted in FIG. 1.
Samples 1, 2 and 6 are examples of naturally-derived geranium oils; sample 3 is the synthetic composition as set out in Table 1, sample 4 is pure geraniol, sample 5 is pure citronellol and sample 4+5 is 50:50 (by volume) combination of geraniol and citronellol. Net current represents the difference between current measured in control condition and in presence of tested compound, in response to the same voltage step.

post-herpetic neuralgia = experiment: Human screening of synthetic geranium oil and geraniol in neuropathic pain (post-herpetic neuralgia); format: in vivo; conditions: topical pure geraniol, human neuropathic pain sufferers
Method: A synthetic blend of geranium oil (Table 1) was also tested in a panel of human neuropathic pain sufferers known to respond to naturally derived geranium oil. The geranium oil was topically applied in therapeutically effective amounts to areas of the human body affected with symptoms of neuropathic pain. Dosage amounts depended on the size of the patient's affected areas. […] Once administered, a typical positive response is a significant reduction in pain, often in minutes. A significant number of patients in the panel of neuropathic pain sufferers preferred the pain relieving effects of the synthetic blend of geranium oil, with known purified constituents, over the natural geranium oil.
Since natural geranium oil relieves neuropathic pain and inhibits the delayed rectifying potassium channel, and since synthetic geranium oil, geraniol, and citronellol all inhibit the delayed rectifying potassium channel, synthetic geranium oil and geraniol were tested on patients with post-herpetic neuralgia. A synthetic blend of geranium oil was tested in patients with post-herpetic neuralgia that were positive responders to natural geranium oil. […] Pure geraniol was then tested in these subjects.

post herpetic neuralgia = experiment: Case study, post herpetic neuralgia, topical pure geraniol; format: in vivo, human; conditions: over 30 minutes after topical application; one subject
Description: person, Ht 68 inches, Weight 162 lb. BMI 24.7. History of shingles 4 years prior to study with residual pain (post herpetic neuralgia). The subject tried Neurontin™ (Pfizer, U.S.) for 1 week with only some help and quit 3-4 years prior to this study.
They had moderate pain that made it hard to concentrate on things other than the pain. […] They could sleep, but had to keep changing positions to do so. They described the post-herpetic neuralgia as the worst thing to have happened to […]. The subject's pain decreased by 78% with pure geraniol over the course of 30 minutes after topical application as measured on a standard visual analog scale.

Sequence of delayed rectifier current (Ikv), specifically Ikv 1.5 subtype (P22460 whole entry): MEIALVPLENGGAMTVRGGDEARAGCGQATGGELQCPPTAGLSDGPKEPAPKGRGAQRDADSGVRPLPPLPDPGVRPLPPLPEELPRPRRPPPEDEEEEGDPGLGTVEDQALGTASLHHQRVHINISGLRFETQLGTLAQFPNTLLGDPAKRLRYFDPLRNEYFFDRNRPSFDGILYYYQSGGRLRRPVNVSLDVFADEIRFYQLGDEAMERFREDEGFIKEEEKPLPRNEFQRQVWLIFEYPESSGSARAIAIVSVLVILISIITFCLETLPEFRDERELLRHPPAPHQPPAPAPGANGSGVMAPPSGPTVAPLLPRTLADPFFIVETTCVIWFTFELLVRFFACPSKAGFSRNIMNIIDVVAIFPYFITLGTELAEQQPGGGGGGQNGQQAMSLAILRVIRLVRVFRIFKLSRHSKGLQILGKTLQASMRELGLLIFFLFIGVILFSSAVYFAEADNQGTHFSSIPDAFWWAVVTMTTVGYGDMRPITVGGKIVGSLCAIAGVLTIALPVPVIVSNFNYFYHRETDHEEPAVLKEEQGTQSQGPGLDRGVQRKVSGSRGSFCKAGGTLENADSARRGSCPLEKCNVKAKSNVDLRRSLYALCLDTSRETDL

**Q.** CC(C)=CCCC(C)CCO (centres unmarked) [citronellol, 3,7-dimethyloct-6-en-1-ol] was tested. Which “inhibition of delayed rectifying potassium channels (in words)” value [1] did it give?
**A.** positive

**Q.** And the “percent inhibition of the delayed rectifier potassium current” value (from here on “percent inhibition”) [1]?
**A.** 27%

**Q.** What about the “inhibition of delayed rectifying potassium channels, comparison in words” value [1] of the same molecule?
**A.** highest amount of inhibition; also recorded: highest activity

**Q.** And the “inhibition of nerve transmission (in words)” value [2]?
**A.** effectively inhibit nerve transmission

**Q.** Which “inhibition of delayed rectifying potassium channels (in words)” value [1] does the source give for C=CC(C)(O)CCC=C(C)C (centres unmarked) [linalool, Linalool] here?
**A.** positive

**Q.** And the “percent inhibition” value [1]?
**A.** 18%

**Q.** With CC(C)[C@@H]1CC[C@@H](C)CC1=O [menthone, Menthone] as the molecule, how does the “inhibition of delayed rectifying potassium channels (in words)” value [1] read?
**A.** positive

**Q.** What about the “percent inhibition” value [1] of the same molecule?
**A.** 22%

**Q.** CC(C)=CC1CC(C)CCO1 (centres unmarked) [rose oxide, Rose Oxide] was tested. Which “inhibition of delayed rectifying potassium channels (in words)” value [1] did it give?
**A.** positive

**Q.** And the “percent inhibition” value [1]?
**A.** 14%

**Q.** For C=C(C)C1CC=C(C)C(=O)C1 (centres unmarked) [carvone, Carvone], which “inhibition of delayed rectifying potassium channels (in words)” value [1] is on record?
**A.** positive

**Q.** And the “percent inhibition” value [1]?
**A.** 22%

**Q.** How did the “inhibition of delayed rectifying potassium channels (in words)” value [1] turn out when CC(C)=CCC/C(C)=C/CO [geraniol, 2,6-Octadien-1-ol, 3,7-dimethyl-, (2E)-] was run?
**A.** positive

**Q.** What about the “percent inhibition” value [1] of the same molecule?
**A.** 26%

**Q.** And the “inhibition of delayed rectifying potassium channels, comparison in words” value [1]?
**A.** highest amount of inhibition; also recorded: highest activity

**Q.** What about the “neuropathic pain relief (in words)” value (post-herpetic neuralgia) of the same molecule?
**A.** almost immediate pain relief; also recorded: greatest effect on neuropathic pain relief

**Q.** And the “decrease of pain on visual analog scale” value (post herpetic neuralgia)?
**A.** 78%

**Q.** And the “inhibition of nerve transmission (in words)” value [2]?
**A.** effectively inhibit nerve transmission

**Q.** And the “membrane currents, current-voltage relation (in words)” value (“membrane currents” for short) [2]?
**A.** reduction in the membrane current amplitude; also recorded: reduction of membrane currents

**Q.** What about the “membrane currents” value ([2]; listed as geraniol (test compound #4)) of the same molecule?
**A.** reduction of membrane currents

**Q.** And the “membrane currents” value ([2]; listed as sample #4 (Geraniol))?
**A.** reduction of membrane currents

**Q.** And the “net current reduction, rank among tested samples” value ([2]; most negative voltage step (−110 mV), FIG. 3)?
**A.** greatest inhibition

**Q.** What about the “action potentials (in words)” value ([2]; voltage steps or depolarizing current pulse of 0.4 nA, FIG. 2) of the same molecule?
**A.** inhibition of action potential
